Experiments:
Test in all cases: ELISA, CRP binding to immobilised PC-KLH
Settings in all cases: PC presented as immobilised KLH conjugate, not free ligand; 2 mM CaCl2, TBS pH 7.4; calcium-dependent
[1] = biological target: T1, mouse CRP (Mus musculus, UniProt P14847)
T1 construct: signal peptide replaced by alpha-factor signal, N-terminal 6xHis tag kept; secreted from Pichia pastoris GS115; homopentamer
T1 sequence (P14847 20-225): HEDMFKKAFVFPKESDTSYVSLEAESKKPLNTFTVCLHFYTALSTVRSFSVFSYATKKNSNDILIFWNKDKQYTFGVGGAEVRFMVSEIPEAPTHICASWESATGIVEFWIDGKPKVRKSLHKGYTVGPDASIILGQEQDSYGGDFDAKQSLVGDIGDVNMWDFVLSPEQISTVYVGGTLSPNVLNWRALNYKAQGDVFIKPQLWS

[2] = biological target: T2, rat CRP (Rattus norvegicus, UniProt P48199)
T2 construct: signal peptide replaced by alpha-factor signal, N-terminal 6xHis tag kept; secreted from Pichia pastoris GS115; homopentamer
T2 sequence (P48199 20-230): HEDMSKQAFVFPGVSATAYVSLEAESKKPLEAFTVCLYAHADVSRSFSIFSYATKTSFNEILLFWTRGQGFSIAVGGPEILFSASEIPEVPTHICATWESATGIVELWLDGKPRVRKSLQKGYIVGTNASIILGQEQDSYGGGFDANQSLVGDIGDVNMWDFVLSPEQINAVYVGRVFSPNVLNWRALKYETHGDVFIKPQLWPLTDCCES

[3] = biological target: T3, human CRP (Homo sapiens, UniProt P02741)
T3 sequence (P02741 19-224): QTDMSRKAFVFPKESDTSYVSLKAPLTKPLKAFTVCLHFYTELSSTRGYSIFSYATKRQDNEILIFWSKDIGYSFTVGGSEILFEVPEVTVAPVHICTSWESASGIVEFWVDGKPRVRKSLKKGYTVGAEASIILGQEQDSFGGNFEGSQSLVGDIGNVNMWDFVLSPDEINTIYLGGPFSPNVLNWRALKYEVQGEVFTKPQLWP

C[N+](C)(C)CCOP(=O)([O-])O [phosphorylcholine]
ELISA, CRP binding to immobilised PC-KLH [1]: mouse, rat, and human CRP also showed a comparable capacity to bind PC | ELISA, CRP binding to immobilised PC-KLH [2]: mouse, rat, and human CRP also showed a comparable capacity to bind PC | ELISA, CRP binding to immobilised PC-KLH [3]: mouse, rat, and human CRP also showed a comparable capacity to bind PC
